Measured values taken from US7776572B2, “Method for reducing loss of enzyme activity during storage” (Corning Incorporated, priority 1996, dated 2010).
Where two headings read alike, the source gives them in different places.

How the values were obtained:
[1] = system: ^125I-IgG (goat anti-mouse); assay: Radiometric determination of IgG binding to surfactant-coated polystyrene microtiter wells; conditions: for Total IgG binding, Non-Sterilized: coated polystyrene wells; for Total IgG binding, Non-Sterilized / Tight IgG binding, Non-Sterilized: not sterilized; for Total IgG binding, Non-Sterilized / Total IgG binding, Sterilized: after three PBS washes; for Total IgG binding, Sterilized / Tight IgG binding, Sterilized: gamma sterilized (1.5 Mrad); for Tight IgG binding, Sterilized / Tight IgG binding, Non-Sterilized: after two hours in PBS-Tween (0.05%)
HRP-Goat A'Mouse IgG = assay: Enzymatic determination of protein binding to coated medium binding polystyrene plate; conditions: coated medium binding PS; versus uncoated high binding polystyrene plate; absorbance 405 nm
Procedure, shortened: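 Read-out of HRP-goat anti-mouse IgG (0.04 μg/ml in PBS pH 7.4) binding to surfactant-coated medium-binding polystyrene, 1 h at room temperature, then five washes. ABTS/H2O2 substrate for 15 min in the dark, stopped with 1% SDS, absorbance at 405 nm; reduction in binding relative to an untreated high-binding plate.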

Horse IgG = assay: Protein binding by colloidal gold staining, coated medium binding polystyrene plates; conditions: coated medium binding PS; IgG 10 μg/ml, pH 9.4
Procedure, shortened: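 Medium-binding polystyrene wells coated with non-ionic surfactant (0.1% w/v in isopropanol, dried), then exposed 30 min on a rocker to horse IgG at 10 μg/ml in 0.10M NaHCO3, pH9.4. Bound protein stained overnight with colloidal gold; absorbance at 550 nm.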

Fetal Bovine Serum (FBS) = assay: Polymer blends molded into petri dishes, FBS protein binding by colloidal gold
Experimental: Low binding non-ionic surfactant molecules were blended at 5% (except as noted in Table 13) into a base polymer using a twin screw extruder, then injection molded into the shape of 35 mm petri dishes. Proteins tested were BSA and Fetal Bovine Serum (FBS). Protein binding was determined using a colloidal gold staining procedure as described above. In the case of the polypropylene and EVA blends, a silver enhancer was used (Sigma Chem. Co., St, Louis, Mo., Kit #SE-100).

rat = conditions: cited from earlier work
[2] = system: GAM-IgG-HRP (goat-anti-mouse-IgG-horseradish peroxidase enzyme labeled antibody); assay: Bound enzyme labeled antibody on strips exposed to aqueous surfactant, rinsed or not rinsed, ABTS readout; conditions: 0.1% surfactant in H2O/isopropanol (95/5), not dried, rinsed 5x with dI H2O
Experimental: Medium binding (catalog #2587) and high binding (catalog #2581) polystyrene 96-well plates (8-well strips) manufactured by Corning Costar were used as follows. […] Strips were incubated for 30 minutes at room temperature on a rocker table. Strips were then emptied and tapped out. […] Immediately following this procedure, each well was aliquoted 0.10 ml of GAM-IgG-HRP (goat-anti-mouse-IgG-horseradish peroxidase enzyme labeled antibody; Kirkegaard and Perry, Gaithersburg, Md., Catalog #074-1806) at 1.0 μg/ml in PBS buffer pH=7.4). Strips were incubated for one hour at room temperature on a rocker table. Strips were then rinsed 5× with PBS buffer containing 0.02% Tween-20 followed by post rinsing with H2O. […] Absorbance at 405 nm was measured on a Cambridge Technologies #7520 Plate Reader.

[3] = blended at 5% into polypropylene, silver enhancer
[4] = blended at 1% into ethylene vinyl acetate
[5] = blended at 5% into ethylene vinyl acetate, silver enhancer

Molecule | Total IgG binding, Non-Sterilized [1] [ng/cm^2] | Total IgG binding, Sterilized [1] [ng/cm^2] | Tight IgG binding, Sterilized [1] [ng/cm^2] | Tight IgG binding, Non-Sterilized [1] [ng/cm^2] | % Reduction in Protein Binding (HRP-Goat A'Mouse IgG) [%] | IgG Protein Binding Absorbance (550 nm) (Horse IgG) | Bound Protein Absorbance (550 nm) FBS (Fetal Bovine Serum (FBS); [3]) | Bound Protein Absorbance (550 nm) FBS (Fetal Bovine Serum (FBS); [4]) | Bound Protein Absorbance (550 nm) FBS (Fetal Bovine Serum (FBS); [5]) | LD50 (rat) [grams/Kg] | Absorbance (405 nm) High Binding Polystyrene Rinsed [2] | Absorbance (405 nm) Medium Binding Polystyrene Rinsed [2] | Bound Protein Absorbance (550 nm) FBS (Fetal Bovine Serum (FBS); blended at 5% into polystyrene) | LD50 (rat; in vivo) [grams/Kg]
PEO(4) SORBITOL MONO-STEARATE | 37 | 130 | 80 | 18 | 99.5 | 0.00 | 0.057 | – | – | – | – | – | – | –
SORBITOL MONO-OLEATE | 31 | 33 | 5 | 7 | 92.7 | 0.00 | 0.000 | 0.371 | 0.000 | >39 | – | – | – | –
CCCCCCCC/C=C\CCCCCCCCOCCOCCO [PEO(2) OLEYL ETHER] | 7 | 22 | 4 | 5 | 99.9 | 0.00 | 0.000 | 0.291 | 0.000 | – | 2.10 | 1.90 | 0.015 | –
CCCCCCCCCCCCOCCOCCOCCOCCO [PEO(4) LAURYL ETHER] | 2 | 10 | 4 | 2 | 99.3 | 0.00 | – | – | – | – | 2.10 | 1.90 | – | >5
PEO(20) SORBITOL TRI-STEARATE | 5 | 7 | 4 | 2 | 99.7 | 0.00 | – | – | – | – | – | – | – | –
